Measurements taken from US6440451B1, “Use of crataegus formulations for prophylaxis and treatment of neoplastic diseases” (Nativia Health Products GmbH, priority 1998, dated 2002).

Legend:
HT-29 = assay: MTT assay, HT-29 colon carcinoma cells; assay type: cell-based, human; conditions: 72 hours
Text: (§1) In the context of the present invention, five human tumour cell lines (four carcinoma cell lines, one sarcoma cell line) and one animal carcinoma cell line (cf. tab. 2) were investigated as examples. All the cell lines were kept in permanent cell culture in cell culture bottles with 75 cm^2 base area. They were subjected to passage once a week, and the medium was changed twice a week. At the start of the experiment (day 0), the cells were sown in cell culture plates with 96 depressions (96 well plates) in 100 μl medium per well (=0.32 cm^2) in each case, with the density shown in table 2. On days 1 and 4, the medium of all the cells was changed, and after the change of medium on day 4, incubation with the active substances (Crataegus formulations, Gentiana, superoxide dismutase, 5-fluorouracil and methotrexate; see below) or the solvents as controls started immediately. The effects of the active substances were measured on day 7 (that is to say after incubation for 72 hours) with two different methods, the so-called MTT assay and the SRB assay (see tab. 2).
(§2) MTT assay: The MTT assay (T. Mossman, J. Immunoll. Methods 65 (1983) 55-63) is based on measurement of the metabolic activity of living cells. The substance 3-(4,5-dimethylthiazol-2-yl)-2,5-diphenyltetrazolium bromide (MTT), which the cells reduce intracellularly to the water-insoluble dyestuff formazan, is made available to the cells. This reduction takes place only in metabolically active cells, so that this assay detects exclusively living cells. At the measurement time, in each case 100 μl MTT solution (4 mg/ml PBS, phosphate buffered saline) are added to the cells in 100 μl medium. Incubation for two hours at 37° C. then takes place. Thereafter, the medium is sucked off, so that the dyed living cells adhering to the base of the culture flask remain. These and the dyestuff are dissolved with 100 μl DMSO (dimethylsulphoxide) in the course of 5 minutes, with vigorous shaking. The extinction is then determined photometrically at 570 nm. Its linearity in the range used here, and also its correlation to the number of living cells (counted under the microscope) were detected in preliminary experiments. […] For the evaluation, ΔE was determined by subtraction of the extinction in the controls with PBS from the measurement values with MTT.
(§3) The data shown in table 3 are the means of three individual measurements. ΔE measured under the action of the various test substances has additionally been shown in percent of ΔE of the particular solvent controls. […] At the time of addition of the test substance (day 4), the cells had already reached approx. 50% of the density, and therefore also 50% of the ΔE to be measured.

CMT-93 = assay: SRB assay, CMT-93 rectum carcinoma cells; assay type: cell-based, mouse; conditions: 72 hours
Text: as §1
SRB assay: The SRB assay (P. Skehan et al., J. Natl. Cancer Inst. 82 (1990) 1107-1112) is based on binding of the dyestuff sulphorhodamine B (SRB) to basic proteins. The principle specifies fixing, with the aid of trichloroacetic acid, the tumour cells adhering to the culture vessel base and thereafter dyeing their protein. This dyeing is then also determined photometrically. Non-living cells are distinguished in that they first detach themselves from the cell culture base and then dissolve in the culture medium. This method therefore also measures only the living cells in a cell culture. The cells growing in 100 μl medium are first fixed with 25 μl 50% cold trichloroacetic acid at 4° C. After incubation for one hour at 4° C., all the non-fixed constituents are removed and those which remain are rinsed five times with water. After drying in air, 200 μl 0.4% sulphorhodamine B solution in 1% acetic acid or, in the photometric controls, only acetic acid,. are added. […] The extinction was measured at 570 nm or, if the OD (optical density) lay outside the linear range, at 492 nm (for CMT-93 cells). For the evalution, ΔE was determined by subtraction of the extinction in the controls with acetic acid from the measurement values with SRB.
as §3

Caki-1 = assay: MTT assay, Caki-1 kidney carcinoma cells; assay type: cell-based, human; conditions: 72 hours
Text: as §1, §2, §3

SAOS-2 = assay: MTT assay, SAOS-2 osteosarcoma cells; assay type: cell-based, human; conditions: 72 hours
Text: as §1, §2, §3

SKMEL-2 = assay: SRB assay, SK-MEL-2 malignant melanoma cells; assay type: cell-based, human; conditions: for % control / dE mean: SKMEL-2, 72 hours
Text: as §1
SRB assay: The SRB assay (P. Skehan et al., J. Natl. Cancer Inst. 82 (1990) 1107-1112) is based on binding of the dyestuff sulphorhodamine B (SRB) to basic proteins. The principle specifies fixing, with the aid of trichloroacetic acid, the tumour cells adhering to the culture vessel base and thereafter dyeing their protein. This dyeing is then also determined photometrically. Non-living cells are distinguished in that they first detach themselves from the cell culture base and then dissolve in the culture medium. This method therefore also measures only the living cells in a cell culture. The cells growing in 100 μl medium are first fixed with 25 μl 50% cold trichloroacetic acid at 4° C. After incubation for one hour at 4° C., all the non-fixed constituents are removed and those which remain are rinsed five times with water. After drying in air, 200 μl 0.4% sulphorhodamine B solution in 1% acetic acid or, in the photometric controls, only acetic acid,. are added. After incubation for 30 minutes at room temperature, the dyestuff solution is poured out and the culture is rinsed four times with 1% acetic acid. After removal of the rinsing solution and drying, the dyestuff adhering to the basic proteins is dissolved in 100 μl 10 mM tris-base (tris(hydroxymethyl)aminomethane) in the course of 5 minutes. The extinction was measured at 570 nm or, if the OD (optical density) lay outside the linear range, at 492 nm (for CMT-93 cells). For the evalution, ΔE was determined by subtraction of the extinction in the controls with acetic acid from the measurement values with SRB.
The data shown in table 3 are the means of three individual measurements. ΔE measured under the action of the various test substances has additionally been shown in percent of ΔE of the particular solvent controls. The control cells, which received no test substances (Crataegus formulations) but only medium or solvent, reached 100% of their density (number) as defined at the measurement time (day 7). At the time of addition of the test substance (day 4), the cells had already reached approx. 50% of the density, and therefore also 50% of the ΔE to be measured.

U373MG = assay: SRB assay, U373MG glioblastoma cells; assay type: cell-based, human
Text: In the context of the present invention, five human tumour cell lines (four carcinoma cell lines, one sarcoma cell line) and one animal carcinoma cell line (cf. tab. 2) were investigated as examples. All the cell lines were kept in permanent cell culture in cell culture bottles with 75 cm^2 base area. They were subjected to passage once a week, and the medium was changed twice a week. At the start of the experiment (day 0), the cells were sown in cell culture plates with 96 depressions (96 well plates) in 100 μl medium per well (=0.32 cm^2) in each case, with the density shown in table 2. […] [table] SRB assay: The SRB assay (P. Skehan et al., J. Natl. Cancer Inst. 82 (1990) 1107-1112) is based on binding of the dyestuff sulphorhodamine B (SRB) to basic proteins. The principle specifies fixing, with the aid of trichloroacetic acid, the tumour cells adhering to the culture vessel base and thereafter dyeing their protein. This dyeing is then also determined photometrically. Non-living cells are distinguished in that they first detach themselves from the cell culture base and then dissolve in the culture medium. This method therefore also measures only the living cells in a cell culture. The cells growing in 100 μl medium are first fixed with 25 μl 50% cold trichloroacetic acid at 4° C. After incubation for one hour at 4° C., all the non-fixed constituents are removed and those which remain are rinsed five times with water. After drying in air, 200 μl 0.4% sulphorhodamine B solution in 1% acetic acid or, in the photometric controls, only acetic acid,. are added. […] For the evalution, ΔE was determined by subtraction of the extinction in the controls with acetic acid from the measurement values with SRB. The data shown in table 3 are the means of three individual measurements. ΔE measured under the action of the various test substances has additionally been shown in percent of ΔE of the particular solvent controls. […] At the time of addition of the test substance (day 4), the cells had already reached approx. 50% of the density, and therefore also 50% of the ΔE to be measured.

[1] = test system: human neuroblastoma and breast carcinoma cells; conditions: Fotsis et al., Cancer Research 57 (1997); cited from earlier work
[2] = test system: human fibroblasts, keratinocytes and endothelial cells; conditions: Fotsis et al., Cancer Research 57 (1997); cited from earlier work
[3] = test system: tumour cell lines investigated; assay: MTT/SRB assays, statements on all tumour cell lines investigated; assay type: cell-based; conditions: table 3
Text: as §1, with “On days 1 and 4, the medium of all the cells was changed, and after the change of medium on day 4, incubation with the active substances (Crataegus formulations, Gentiana, superoxide dismutase, 5-fluorouracil and methotrexate; see below) or the solvents as controls started immediately.” left out
MTT assay: The MTT assay (T. Mossman, J. Immunoll. Methods 65 (1983) 55-63) is based on measurement of the metabolic activity of living cells. […] The extinction is then determined photometrically at 570 nm. Its linearity in the range used here, and also its correlation to the number of living cells (counted under the microscope) were detected in preliminary experiments. […] For the evaluation, ΔE was determined by subtraction of the extinction in the controls with PBS from the measurement values with MTT. […]

[4] = U373MG, medium, 45 μg/ml, 72 hours
[5] = solvent H2O 0.10% final conc, 1 μg/ml

Compound: O=c1[nH]cc(F)c(=O)[nH]1 [5-Fluorouracil]
- % control (HT-29; medium, 25 μg/ml): 53%
- dE mean (HT-29; medium, 25 μg/ml): 0.973
- % control (CMT-93; medium, 25 μg/ml): 63%
- dE mean (CMT-93; medium, 25 μg/ml): 0.191

Compound: CN(Cc1cnc2nc(N)nc(N)c2n1)c1ccc(C(=O)N[C@@H](CCC(=O)O)C(=O)O)cc1 [Methotrexate]
- % control (Caki-1; medium, 45 μg/ml): 47%
- dE mean (Caki-1; medium, 45 μg/ml): 0.679
- % control (SAOS-2; medium, 45 μg/ml): 41%
- dE mean (SAOS-2; medium, 45 μg/ml): 0.259
- % control (SKMEL-2; medium, 45 μg/ml): 119%
- dE mean (SKMEL-2; medium, 45 μg/ml): 2.429
- cytostatic/cytotoxic action on SKMEL-2 cells, in words (SKMEL-2; table 3): resistance
- % control (U373MG; [4]): 135%
- dE mean (U373MG; [4]): 1.449
- cytostatic/cytotoxic action on U373MG cells, in words (U373MG; table 3): resistance

Compound: O=c1cc(-c2ccc(O)c(O)c2)oc2cc(O[C@@H]3O[C@H](CO)[C@@H](O)[C@H](O)[C@H]3O)cc(O)c12 [luteolin-7-glucoside]
- effect on proliferation of human neuroblastoma and breast carcinoma cells [1]: inhibiting effect
- effect on proliferation of human fibroblasts, keratinocytes and endothelial cells [2]: inhibits the proliferation

Compound: O=c1c(O)c(-c2ccc(O)c(O)c2)oc2cc(O)cc(O)c12 [quercetin]
- effect on proliferation of human neuroblastoma and breast carcinoma cells [1]: inhibiting effect
- effect on proliferation of human fibroblasts, keratinocytes and endothelial cells [2]: inhibits the proliferation

Compound: Superoxide dismutase: Superoxide dismutase from bovine erythrocytes, superoxide scavenger comparison
- % control (HT-29; [5]): 90%
- dE mean (HT-29; [5]): 1.725
- % control (Caki-1; [5]): 97%
- dE mean (Caki-1; [5]): 1.442
- % control (SAOS-2; [5]): 98%
- dE mean (SAOS-2; [5]): 0.564
- % control (CMT-93; [5]): 92%
- dE mean (CMT-93; [5]): 0.326
- % control (SKMEL-2; [5]): 94%
- dE mean (SKMEL-2; [5]): 1.340
- cytostatic/cytotoxic action on the cell lines investigated, in words [3]: no cytostatic or cytotoxic effects
